Reference: patent US7611852B2, “Functional cardiomyocytes from human embryonic stem cells” (Wisconsin Alumni Research Foundation, priority 2002, dated 2009)

How the values were obtained:
[1] = system: human embryonic stem cell-derived cardiomyocytes (beating EB outgrowths); experiment: Contraction measurements of beating EB outgrowths by video edge detection during electrical field stimulation; type: cell-based; settings: 1 micromolar, EB electrically stimulated at 1 hertz, basal level defined as 100, FIG. 1
From the text: One problem in the testing of cardiomyocytes in EBs is that the rate of spontaneous beating is variable can be dependent on a variety of factors. […] This can be readily done by applying an electrical field stimulation to the EB. This is done most simply by applying electrodes to opposite sides of the culture container in which the EB is contained. […] It is necessary as a part of this process to maintain the EB culture at a constant temperature, since temperature changes can also effect the amplitude of EB beats. It is possible to optically scan the EBs during such beating, using imaging processing observing the EB with video microscopy, to determine the amplitude of the beats which occur in such an EB. […] Additionally other properties of the beat can be monitored such as the rate of contraction and relaxation of the embryoid body providing additional mechanistic information. […]
Contractions were measured using video edge detection. […] Individual beating EBs were monitored with Video Edge Detector VED 105 (Crescent Electronics) through CCD BW Camera NL-2332 (National Electronic) and Sony BW Video Monitor PVM-97 (Sony Corp). The twitch responses at sharp edge of beating EB outgrowth were recorded at 1 kHz through DigiData 1200 A/D converter with pClamp 8.2 acquisition software (both from Axon Instrument, Foster City, Calif.). […]

[2] = system: embryonic atrial-like cardiomyocytes; experiment: Intracellular action potential recording with sharp microelectrodes, embryonic atrial-like cardiomyocytes in EBs; type: cell-based, human
From the text: The applicants here have determined that the HERG channel response of cardiomyocytes in culture created from human embryonic stem cells can be tested and that they do have the same responsive characteristics as mature heart cells in adult humans. Shown in FIG. 5 is an experiment conducted on an atrial type cell, which is a cardiomyocyte in an EB in culture. Note that the electrical profile of the potential generated by that cell, labeled basal in FIG. 5, is characteristic of an embryonic atrial type action potential. To the culture in which that basal signal was being observed, 500 nanomolar E4031 was added. E4031 is a known highly specific HERG channel blocker which blocks the rapid delayed rectifying potassium current (IKr) in adult human heart cells. The addition of that chemical to the medium in which the EB was cultured led to the modification of the action potential generated by that atrial type cell, as illustrated by the curve marked “500 nM E4031” in FIG. 5. The action potential was prolonged due to delayed return to a resting state. This is precisely the effect that this molecule, E4031, is known to have on adult heart cells and precisely the effect that one would predict from the blockage of the HERG channel.
(§1) A single beating, microdissected EB outgrowth was cultured on a glass coverslip for 1-10 days. The coverslip was then attached to the bottom of an experimental chamber mounted on an inverted microscope (Nikon Diaphot 200). The EBs were perfused with Tyrodes solution consisting of (mmol/L): 140 NaCl, 1 MgCl2, 10 HEPES, 10 Glucose, 1.8 CaCl2, pH 7.4 with NaOH at 37° C. Contractions were measured using video edge detection. For intracellular electrophysiology experiments, sharp glass microelectrodes were fabricated with resistances of 30-100 MΩ when filled with 3 mol/L KCl. Spontaneously beating EBs were impaled with the microelectrodes and pipette capacitance was nulled. […] In some experiments, the preparation underwent electrical field stimulation at rates from 1 to 3 Hz. Data were digitized at 20 kHz and filtered at 2 kHz. APs were analyzed using pClamp8.02 (Axon Instruments, Foster City, Calif.) and Origin 6.0 software (Microcal Inc, Northampton, Mass.) to determine AP duration at 50% and 90% of repolarization (APD50 and APD90), AP amplitude (APA), maximum diastolic potential (MDP), and the maximum rate of rise of the AP upstroke (dV/dtmax).
Repolarization of the cardiac action potential is due to multiple ionic currents with an important role played by voltage gated K+ channels; however, there is significant species variability of the exact type of K+ channels present. In human heart, current through HERG potassium channels (KCNH2), IKr, plays a major role in repolarization of the action potential. […]

[3] = system: embryonic ventricular-like cardiomyocytes; type: cell-based; settings: 500 nM E-4031
[4] = system: human embryonic stem cell-derived cardiomyocytes; experiment: Intracellular action potential recording with sharp microelectrodes, cell type not specified; type: cell-based; settings: 500 nM E-4031
Description: as §1
Repolarization of the cardiac action potential is due to multiple ionic currents with an important role played by voltage gated K+ channels; however, there is significant species variability of the exact type of K+ channels present. […]

SMILES | amplitude of the beat or contraction of the EB [1] | APD50 ([2]; 500 nM E-4031) | APD90 ([2]; 500 nM E-4031) | action potential duration ([2]; 500 nM E-4031) | action potential duration ([2]; 500 nanomolar E4031 added to EB culture, atrial type cell, FIG. 5) | APD50 [3] | action potential duration [3] | APD90 ([3]; larger effect on APD90 than APD50) | APA (action potential amplitude) [4] | MDP (maximum diastolic potential) [4]
CC(C)NCC(O)c1ccc(O)c(O)c1 (stereo not shown) [isoproterenol] | increases dramatically | – | – | – | – | – | – | – | – | –
Cc1cccc(CCN2CCC(C(=O)c3ccc(NS(C)(=O)=O)cc3)CC2)n1 [E-4031] | – | not APD50 was significantly prolonged | significantly prolonged | action potential prolongation | prolonged | significant prolongation | action potential prolongation | significant prolongation | not statistically significant effects | not statistically significant effects
